Data reported in patent US10829458B2 (Araxes Pharma LLC, priority 2015, dated 2020).

Each molecule was assayed against T1, KRAS G12C 1-169, his-tagged protein, GDP-loaded (Homo sapiens, UniProt P01116, G12C) (assay: Biochemical assay: covalent modification of KRAS G12C measured by mass spectrometry (RapidFire/TOF or Q-Exactive)). Details: covalent binding to KRAS G12C; compounds of structure (I).
T1 construct: KRAS G12C 1-169, his-tagged protein, GDP-loaded
Procedure, shortened: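 GDP-loaded his-tagged KRAS G12C 1-169 at 2 μM in 20 mM Hepes, 150 mM NaCl, 1 mM MgCl2 incubated at room temperature with compound (10, 30 or 100 μM final, 2% DMSO) for 30 min, 2 h or 24 h, then quenched with formic acid. Intact-protein LC-MS (RapidFire/TOF or Q-Exactive) with deconvolution quantified modified versus unmodified protein.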
With `C=CC(=O)N1CCN(c2nc(OCc3cccc(C#N)n3)nc3c(F)c(-c4c(O)cccc4F)c(Cl)cc23)CC1` [Example I-122, 6-((4-(4-acryloyl-piperazin-1-yl)-6-chloro-8-fluoro-7-(2-fluoro-6-hydroxyphenyl)quinazolin-2-yloxy)methyl) picolinonitrile] the Binding % was “+++ (+++ indicates binding activity greater than 90%)”. `C=CC(=O)N1CCN(c2nc(OCC(F)(F)c3ccccn3)nc3c(F)c(-c4c(C)ccc5[nH]ncc45)c(Cl)cc23)CC1` [Example I-123, 1-(4-(6-chloro-2-(2,2-difluoro-2-(pyridin-2-yl)ethoxy)-8-fluoro-7-(5-methyl-1H-indazol-4-yl)quinazolin-4-yl)piperazin-1-yl) prop-2-en-1-one] was tested, and the Binding % was “+++ (+++ indicates binding activity greater than 90%)”. For `C=CC(=O)N1CCN(c2nc(OCC(F)(F)c3ccccn3)nc3c(F)c(-c4c(O)cccc4F)c(Cl)cc23)CC1` [Example I-124, 1-(4-(6-chloro-2-(2,2-difluoro-2-(pyridin-2-yl)ethoxy)-8-fluoro-7-(2-fluoro-6-hydroxyphenyl)quinazolin-4-yl)piperazin-1-yl) prop-2-en-1-one], the Binding % was “+++ (+++ indicates binding activity greater than 90%)”. With `C=CC(=O)N1CCN(c2nc(OCc3ccnnc3)nc3c(F)c(-c4c(O)cccc4F)c(Cl)cc23)CC1` [Example I-127, 1-(4-(6-chloro-8-fluoro-7-(2-fluoro-6-hydroxyphenyl)-2-(pyridazin-4-ylmethoxy)quinazolin-4-yl)piperazin-1-yl) prop-2-en-1-one] the Binding % was “+++ (+++ indicates binding activity greater than 90%)”. With `C=CC(=O)N1CCN(c2nc(NC3CCN(CC4CC4)CC3)nc3c(F)c(-c4c(C)ccc5[nH]ncc45)c(Cl)cc23)CC1` [Example I-128, 1-(4-(6-chloro-2-(1-(cyclo-propylmethyl)piperidin-4-ylamino)-8-fluoro-7-(5-methyl-1H-indazol-4-yl)quinazolin-4-yl)piperazin-1-yl) prop-2-en-1-one] the Binding % was “+++ (+++ indicates binding activity greater than 90%)”. In the case of `C=CC(=O)N1CCN(c2nc(OCc3ccc(C#N)nc3)nc3c(F)c(-c4c(O)cccc4F)c(Cl)cc23)CC1` [Example I-129, 5-((4-(4-acryloyl-piperazin-1-yl)-6-chloro-8-fluoro-7-(2-fluoro-6-hydroxyphenyl)quinazolin-2-yloxy)methyl) picolinonitrile], the Binding % is reported as “+++ (+++ indicates binding activity greater than 90%)”. `C=CC(=O)N1CCN(c2nc(OCCN(CC)CC)nc3c(F)c(-c4c(C)ccc5[nH]ncc45)c(Cl)cc23)CC1` [Example I-130, 1-(4-(6-chloro-2-(2-(diethyl-amino)ethoxy)-8-fluoro-7-(5-methyl-1H-indazol-4-yl)quinazolin-4-yl)piperazin-1-yl) prop-2-en-1-one] was tested, and the Binding % was “+++ (+++ indicates binding activity greater than 90%)”. For `C=CC(=O)N1CCN(c2nc(N3CC(N(CC)CC)C3)nc3c(F)c(-c4c(O)cccc4F)c(Cl)cc23)CC1` [Example I-131, 1-(4-(6-chloro-2-(3-(diethyl-amino)azetidin-1-yl)-8-fluoro-7-(2-fluoro-6-hydroxyphenyl)quinazolin-4-yl)piperazin-1-yl) prop-2-en-1-one], the Binding % was “+++ (+++ indicates binding activity greater than 90%)”. In the case of `C=CC(=O)N1CCN(c2nc(NC3CCN(C4CCC4)CC3)nc3c(F)c(-c4c(C)ccc5[nH]ncc45)c(Cl)cc23)CC1` [Example I-132, 1-(4-(6-chloro-2-(1-cyclobutyl-piperidin-4-ylamino)-8-fluoro-7-(5-methyl-1H-indazol-4-yl)quinazolin-4-yl)piperazin-1-yl) prop-2-en-1-one], the Binding % is reported as “+++ (+++ indicates binding activity greater than 90%)”. In the case of `C=CC(=O)N1CCN(c2nc(NC3CCCN(CC(F)(F)F)C3)nc3c(F)c(-c4c(O)cccc4F)c(Cl)cc23)CC1` (stereo not drawn) [Example I-133, 1-(4-(6-chloro-8-fluoro-7-(2-fluoro-6-hydroxyphenyl)-2-(1-(2,2,2-trifluoroethyl)piperidin-3-ylamino)quinazolin-4-yl)piperazin-1-yl) prop-2-en-1-one], the Binding % is reported as “++ (++ indicates binding activity from 50 to 90%)”. For `C=CC(=O)N1CCN(c2nc(NC3CCCN(CC4CC4)C3)nc3c(F)c(-c4c(O)cccc4F)c(Cl)cc23)CC1` (stereo not drawn) [Example I-134, 1-(4-(6-chloro-2-(1-(cyclopropyl-methyl)piperidin-3-ylamino)-8-fluoro-7-(2-fluoro-6-hydroxyphenyl)quinazolin-4-yl)piperazin-1-yl) prop-2-en-1-one], the Binding % was “+++ (+++ indicates binding activity greater than 90%)”. With `C=CC(=O)N1CCN(c2nc(CCNc3ncccn3)nc3c(F)c(-c4c(O)cccc4F)c(Cl)cc23)CC1` [Example I-135, 1-(4-(6-chloro-8-fluoro-7-(2-fluoro-6-hydroxyphenyl)-2-(2-(pyrimidin-2-ylamino)ethyl)quinazolin-4-yl)piperazin-1-yl) prop-2-en-1-one] the Binding % was “+++ (+++ indicates binding activity greater than 90%)”. In the case of `C=CC(=O)N1CCN(c2nc(NC3CCN(C(C)C)CC3)nc3c(F)c(-c4c(C)ccc5[nH]ncc45)c(Cl)cc23)CC1` [Example I-136, 1-(4-(6-chloro-8-fluoro-2-(1-isopropyl-piperidin-4-ylamino)-7-(5-methyl-1H-indazol-4-yl)quinazolin-4-yl)piperazin-1-yl) prop-2-en-1-one], the Binding % is reported as “+++ (+++ indicates binding activity greater than 90%)”. For `C=CC(=O)N1CCN(c2nc(NC3CCN(C4COC4)CC3)nc3c(F)c(-c4c(C)ccc5[nH]ncc45)c(Cl)cc23)CC1` [Example I-137, 1-(4-(6-chloro-8-fluoro-7-(5-methyl-1H-indazol-4-yl)-2-(1-(oxetan-3-yl)piperidin-4-ylamino)quinazolin-4-yl)piperazin-1-yl) prop-2-en-1-one], the Binding % was “+++ (+++ indicates binding activity greater than 90%)”. `C=CC(=O)N1CCN(c2nc(OC3CCN(C4CC4)CC3)nc3c(F)c(-c4c(C)ccc5[nH]ncc45)c(Cl)cc23)CC1` [Example I-138] was tested, and the Binding % was “+++ (+++ indicates binding activity greater than 90%)”. For `C=CC(=O)N1CCN(c2nc(OCCc3ncccn3)nc3c(F)c(-c4c(C)ccc5[nH]ncc45)c(Cl)cc23)CC1` [Example I-139, 1-(4-(6-chloro-8-fluoro-7-(5-methyl-1H-indazol-4-yl)-2-(2-(pyrimidin-2-yl)ethoxy)quinazolin-4-yl)piperazin-1-yl) prop-2-en-1-one], the Binding % was “+++ (+++ indicates binding activity greater than 90%)”. `C=CC(=O)N1CCN(c2nc(OCCc3ncccn3)nc3c(F)c(-c4c(O)cccc4F)c(Cl)cc23)CC1` [Example I-140, 1-(4-(6-chloro-8-fluoro-7-(2-fluoro-6-hydroxyphenyl)-2-(2-(pyrimidin-2-yl)ethoxy)quinazolin-4-yl)piperazin-1-yl) prop-2-en-1-one] was tested, and the Binding % was “+++ (+++ indicates binding activity greater than 90%)”. In the case of `C=CC(=O)N1CCN(c2nc(NCCN3CC(F)(F)C3)nc3c(F)c(-c4c(C)ccc5[nH]ncc45)c(Cl)cc23)CC1` [Example I-141, 1-(4-(6-chloro-2-(2-(3,3-difluoro-azetidin-1-yl)ethylamino)-8-fluoro-7-(5-methyl-1H-indazol-4-yl)quinazolin-4-yl)piperazin-1-yl) prop-2-en-1-one], the Binding % is reported as “+++ (+++ indicates binding activity greater than 90%)”. With `C=CC(=O)N1CCN(c2nc(NCCc3ccccn3)nc3c(F)c(-c4c(C)ccc5[nH]ncc45)c(Cl)cc23)CC1` [Example I-142, 1-(4-(6-chloro-8-fluoro-7-(5-methyl-1H-indazol-4-yl)-2-(2-(pyridin-2-yl)ethylamino)quinazolin-4-yl)piperazin-1-yl) prop-2-en-1-one] the Binding % was “+++ (+++ indicates binding activity greater than 90%)”. `C=CC(=O)N1CCN(c2nc(NCCN3CC(F)(F)C3)nc3c(F)c(-c4c(O)cccc4F)c(Cl)cc23)CC1` [Example I-143, 1-(4-(6-chloro-2-(2-(3,3-difluoro-azetidin-1-yl)ethylamino)-8-fluoro-7-(2-fluoro-6-hydroxyphenyl)quinazolin-4-yl)piperazin-1-yl) prop-2-en-1-one] was tested, and the Binding % was “+++ (+++ indicates binding activity greater than 90%)”. With `C=CC(=O)N1CCN(c2nc(N3CC(N(CC)CC)C3)nc3c(F)c(-c4c(C)ccc5[nH]ncc45)c(Cl)cc23)CC1` [Example I-144, 1-(4-(6-chloro-2-(3-(diethylamino)azetidin-1-yl)-8-fluoro-7-(5-methyl-1H-indazol-4-yl)quinazolin-4-yl)piperazin-1-yl) prop-2-en-1-one] the Binding % was “+++ (+++ indicates binding activity greater than 90%)”. With `C=CC(=O)N1CCN(c2nc(OCCN3CC(F)(F)C3)nc3c(F)c(-c4c(C)ccc5[nH]ncc45)c(Cl)cc23)CC1` [Example I-145, 1-(4-(6-chloro-2-(2-(3,3-difluoro-azetidin-1-yl)ethoxy)-8-fluoro-7-(5-methyl-1H-indazol-4-yl)quinazolin-4-yl)piperazin-1-yl) prop-2-en-1-one] the Binding % was “+++ (+++ indicates binding activity greater than 90%)”. In the case of `C=CC(=O)N1CCN(c2nc(OCCN3CCC(F)(F)C3)nc3c(F)c(-c4c(C)ccc5[nH]ncc45)c(Cl)cc23)CC1` [Example I-146, 1-(4-(6-chloro-2-(2-(3,3-difluoro-pyrrolidin-1-yl)ethoxy)-8-fluoro-7-(5-methyl-1H-indazol-4-yl)quinazolin-4-yl)piperazin-1-yl) prop-2-en-1-one], the Binding % is reported as “+++ (+++ indicates binding activity greater than 90%)”. In the case of `C=CC(=O)N1CCN(c2nc(N3CCCC3)nc3c(F)c(-c4c(O)cccc4F)c(Cl)cc23)CC1` [Example I-147, 1-(4-(6-chloro-8-fluoro-7-(2-fluoro-6-hydroxyphenyl)-2-(pyrrolidin-1-yl)quinazolin-4-yl)piperazin-1-yl)prop-2-en-1-one], the Binding % is reported as “++ (++ indicates binding activity from 50 to 90%)”.
